In PubChem BioAssay (NCI):
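Compound exposure: 48 hours, 5 concentrations, 96-well plates. TGI: total growth inhibition.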

Tests used:
Experiment in all cases: NCI-60 cell line screen, 48 h
786-0 renal = test system: 786-0 renal
A498 renal = test system: A498 renal
A549 NSCLC = test system: A549 NSCLC
ACHN renal = test system: ACHN renal
BT-549 breast = test system: BT-549 breast
CAKI-1 renal = test system: CAKI-1 renal
COLO 205 colon = test system: COLO 205 colon
DU-145 prostate = test system: DU-145 prostate
EKVX NSCLC = test system: EKVX NSCLC
HCT-116 colon = test system: HCT-116 colon
HCT-15 colon = test system: HCT-15 colon
HOP-62 NSCLC = test system: HOP-62 NSCLC
HOP-92 NSCLC = test system: HOP-92 NSCLC
HS 578T breast = test system: HS 578T breast
HT29 colon = test system: HT29 colon
IGROV1 ovarian = test system: IGROV1 ovarian
K-562 leukemia = test system: K-562 leukemia
KM12 colon = test system: KM12 colon
LOX IMVI melanoma = test system: LOX IMVI melanoma
M14 melanoma = test system: M14 melanoma
MALME-3M melanoma = test system: MALME-3M melanoma
MCF7 breast = test system: MCF7 breast
MDA-MB-231 breast = test system: MDA-MB-231 breast
MDA-MB-435 = test system: MDA-MB-435
MDA-N = test system: MDA-N
MOLT-4 leukemia = test system: MOLT-4 leukemia
NCI-H226 lung = test system: NCI-H226 lung
NCI-H23 lung = test system: NCI-H23 lung
NCI-H460 lung = test system: NCI-H460 lung
NCI-H522 lung = test system: NCI-H522 lung
NCI/ADR-RES ovarian = test system: NCI/ADR-RES ovarian
OVCAR-3 ovarian = test system: OVCAR-3 ovarian
OVCAR-4 ovarian = test system: OVCAR-4 ovarian
OVCAR-5 ovarian = test system: OVCAR-5 ovarian
OVCAR-8 ovarian = test system: OVCAR-8 ovarian
PC-3 prostate = test system: PC-3 prostate
RPMI-8226 leukemia = test system: RPMI-8226 leukemia
RXF 393 renal = test system: RXF 393 renal
SF-268 CNS = test system: SF-268 CNS
SF-295 CNS = test system: SF-295 CNS
SF-539 CNS = test system: SF-539 CNS
SK-MEL-2 melanoma = test system: SK-MEL-2 melanoma
SK-MEL-28 melanoma = test system: SK-MEL-28 melanoma
SK-MEL-5 melanoma = test system: SK-MEL-5 melanoma
SK-OV-3 ovarian = test system: SK-OV-3 ovarian
SN12C renal = test system: SN12C renal
SNB-19 CNS = test system: SNB-19 CNS
SNB-75 CNS = test system: SNB-75 CNS
SR leukemia = test system: SR leukemia
SW-620 colon = test system: SW-620 colon
T-47D breast = test system: T-47D breast
TK-10 renal = test system: TK-10 renal
U251 CNS = test system: U251 CNS
UACC-257 melanoma = test system: UACC-257 melanoma
UACC-62 melanoma = test system: UACC-62 melanoma
UO-31 renal = test system: UO-31 renal
CCRF-CEM leukemia = test system: CCRF-CEM leukemia
HL-60(TB) leukemia = test system: HL-60(TB) leukemia

O=C(CSC1=NCCN1)c1ccccc1
TGI (786-0 renal): > 100 µM
TGI (A498 renal): > 100 µM
TGI (A549 NSCLC): > 100 µM
TGI (ACHN renal): > 100 µM
TGI (BT-549 breast): > 100 µM
TGI (CAKI-1 renal): > 100 µM
TGI (COLO 205 colon): > 100 µM
TGI (DU-145 prostate): > 100 µM
TGI (EKVX NSCLC): > 100 µM
TGI (HCT-116 colon): > 100 µM
TGI (HCT-15 colon): > 100 µM
TGI (HOP-62 NSCLC): > 100 µM
TGI (HOP-92 NSCLC): > 100 µM
TGI (HS 578T breast): > 100 µM
TGI (HT29 colon): > 100 µM
TGI (IGROV1 ovarian): > 100 µM
TGI (K-562 leukemia): > 100 µM
TGI (KM12 colon): > 100 µM
TGI (LOX IMVI melanoma): > 100 µM
TGI (M14 melanoma): > 100 µM
TGI (MALME-3M melanoma): > 100 µM
TGI (MCF7 breast): > 100 µM
TGI (MDA-MB-231 breast): > 100 µM
TGI (MDA-MB-435): > 100 µM
TGI (MDA-N): > 100 µM
TGI (MOLT-4 leukemia): > 100 µM
TGI (NCI-H226 lung): > 100 µM
TGI (NCI-H23 lung): > 100 µM
TGI (NCI-H460 lung): > 100 µM
TGI (NCI-H522 lung): > 100 µM
TGI (NCI/ADR-RES ovarian): > 100 µM
TGI (OVCAR-3 ovarian): > 100 µM
TGI (OVCAR-4 ovarian): > 100 µM
TGI (OVCAR-5 ovarian): > 100 µM
TGI (OVCAR-8 ovarian): > 100 µM
TGI (PC-3 prostate): > 100 µM
TGI (RPMI-8226 leukemia): > 100 µM
TGI (RXF 393 renal): > 100 µM
TGI (SF-268 CNS): > 100 µM
TGI (SF-295 CNS): > 100 µM
TGI (SF-539 CNS): > 100 µM
TGI (SK-MEL-2 melanoma): > 100 µM
TGI (SK-MEL-28 melanoma): > 100 µM
TGI (SK-MEL-5 melanoma): > 100 µM
TGI (SK-OV-3 ovarian): > 100 µM
TGI (SN12C renal): > 100 µM
TGI (SNB-19 CNS): > 100 µM
TGI (SNB-75 CNS): > 100 µM
TGI (SR leukemia): > 100 µM
TGI (SW-620 colon): > 100 µM
TGI (T-47D breast): > 100 µM
TGI (TK-10 renal): > 100 µM
TGI (U251 CNS): > 100 µM
TGI (UACC-257 melanoma): > 100 µM
TGI (UACC-62 melanoma): > 100 µM
TGI (UO-31 renal): > 100 µM

Cc1ccc2c3c1O[C@H]1c4nc5ccccc5cc4C[C@@]4(O)[C@@H](C2)N(CC2CC2)CC[C@]314
TGI (786-0 renal): 22.7 µM
TGI (A498 renal): 30.7 µM
TGI (A549 NSCLC): 26.8 µM
TGI (ACHN renal): 23.4 µM
TGI (BT-549 breast): 25.5 µM
TGI (CAKI-1 renal): 32.7 µM
TGI (CCRF-CEM leukemia): 22.3 µM
TGI (COLO 205 colon): 19.3 µM
TGI (DU-145 prostate): 69 µM
TGI (EKVX NSCLC): 37.9 µM
TGI (HCT-116 colon): 17.2 µM
TGI (HCT-15 colon): 18.2 µM
TGI (HL-60(TB) leukemia): 26.1 µM
TGI (HOP-62 NSCLC): 31.3 µM
TGI (HOP-92 NSCLC): 58.3 µM
TGI (HS 578T breast): 24.7 µM
TGI (HT29 colon): 16.7 µM
TGI (IGROV1 ovarian): > 100 µM
TGI (K-562 leukemia): 23 µM
TGI (KM12 colon): 35.6 µM
TGI (LOX IMVI melanoma): 17 µM
TGI (M14 melanoma): 25.9 µM
TGI (MALME-3M melanoma): 28.2 µM
TGI (MCF7 breast): 22.3 µM
TGI (MDA-MB-231 breast): 23.5 µM
TGI (MDA-MB-435): 23.5 µM
TGI (MDA-N): 25.4 µM
TGI (MOLT-4 leukemia): 15.5 µM
TGI (NCI-H226 lung): 29.5 µM
TGI (NCI-H23 lung): 67.7 µM
TGI (NCI-H460 lung): 35.8 µM
TGI (NCI-H522 lung): 27.5 µM
TGI (NCI/ADR-RES ovarian): 23.5 µM
TGI (OVCAR-3 ovarian): 25.3 µM
TGI (OVCAR-4 ovarian): 46 µM
TGI (OVCAR-5 ovarian): 25.8 µM
TGI (OVCAR-8 ovarian): 22.6 µM
TGI (PC-3 prostate): 26.5 µM
TGI (RPMI-8226 leukemia): 25.4 µM
TGI (RXF 393 renal): 21.1 µM
TGI (SF-268 CNS): 25.6 µM
TGI (SF-295 CNS): 20.8 µM
TGI (SF-539 CNS): 19.4 µM
TGI (SK-MEL-2 melanoma): 35.5 µM
TGI (SK-MEL-28 melanoma): > 100 µM
TGI (SK-MEL-5 melanoma): 19.2 µM
TGI (SK-OV-3 ovarian): 31.3 µM
TGI (SN12C renal): > 100 µM
TGI (SNB-19 CNS): > 100 µM
TGI (SR leukemia): 50.9 µM
TGI (SW-620 colon): 18.3 µM
TGI (T-47D breast): 32.2 µM
TGI (TK-10 renal): 54.6 µM
TGI (U251 CNS): 18.7 µM
TGI (UACC-257 melanoma): 41.1 µM
TGI (UACC-62 melanoma): 23.5 µM
TGI (UO-31 renal): 22.2 µM
